Assay results published in patent publication US9115137B2, “2,3,4,5-tetrahydro-1H-pyrido[4,3-B]indole compounds and methods of use thereof” (priority 2008, dated 2015).

system: rat central imidazoline I2 receptor; assay: Central imidazoline I2 radioligand binding ([3H]Idazoxan); conditions: compound at 1 μM; Wistar Rat cerebral cortex
Method: To evaluate in radioligand binding assays the activity of compounds of the invention, rat central imidazoline I2 receptor obtained from Wistar Rat cerebral cortex (Brown, C. M. et al., Br. J. Pharmacol. 99:803, 1990) in a modified Tris-HCl buffer (50 mM Tris-HCl buffer, pH 7.4, 0.5 mM EDTA) was used. Compounds of the invention were incubated with 2 nM [^3H]Idazoxan for 30 minutes at 25° C. Non-specific binding was estimated in the presence of 1 μM Idazoxan. Receptor proteins were filtered and washed, the filters were then counted to determine [^3H]Idazoxan specifically bound. Compounds were screened at 1 μM or lower, using 1% DMSO as vehicle. Compounds of the invention were tested in this biochemical assay and percent inhibition of specific binding was determined. Biochemical assay results are presented as the percent inhibition of specific binding in Table 5.

Compound	Imidazoline I2 Central (1 μM), percent inhibition of specific binding
CCOC(=O)CCn1c2c(c3cc(Cl)ccc31)CN(C)CC2 [CD17, ethyl 3-(8-chloro-1,2,3,4-tetrahydro-2-methylpyrido[4,3-b]indol-5-yl)propanoate]	62%
CN1CCc2c(c3cc(Cl)ccc3n2CC(=O)O)C1 [CD46, 2-(8-chloro-1,2,3,4-tetrahydro-2-methylpyrido[4,3-b]indol-5-yl)acetic acid]	28%
Cc1ccc2c(c1)c1c(n2CCC(=O)O)CCN(C)C1 [CD47, 3-(1,2,3,4-tetrahydro-2,8-dimethylpyrido[4,3-b]indol-5-yl)propanoic acid]	3%
CN1CCc2c(c3cc(Cl)ccc3n2CCC(=O)O)C1 [CD55, 3-(8-chloro-1,2,3,4-tetrahydro-2-methylpyrido[4,3-b]indol-5-yl)propanoic acid]	3%
Cc1ccc2c(c1)c1c(n2CC(=O)O)CCN(C)C1 [CD58, 2-(1,2,3,4-tetrahydro-2,8-dimethylpyrido[4,3-b]indol-5-yl)acetic acid]	3%
Cc1ccc2c(c1)c1c(n2CCN)CCN(C)C1 [CD62, 2-(1,2,3,4-tetrahydro-2,8-dimethylpyrido[4,3-b]indol-5-yl)ethanamine]	13%
CCOC(=O)Cn1c2c(c3cc(Cl)ccc31)CN(C)CC2 [Compound 10, ethyl 2-(8-chloro-1,2,3,4-tetrahydro-2-methylpyrido[4,3-b]indol-5-yl)acetate]	25%
CC(C)OC(=O)Cn1c2c(c3cc(Cl)ccc31)CN(C)CC2 [Compound 11, isopropyl 2-(8-chloro-1,2,3,4-tetrahydro-2-methylpyrido[4,3-b]indol-5-yl)acetate]	5%
CN1CCc2c(c3cc(Cl)ccc3n2CC(=O)OCc2ccccc2)C1 [Compound 13, benzyl 2-(8-chloro-1,2,3,4-tetrahydro-2-methylpyrido[4,3-b]indol-5-yl)acetate]	16%
CN1CCc2c(c3cc(Cl)ccc3n2CC(=O)OC2CCCC2)C1 [Compound 15]	23%
CCNC(=O)Cn1c2c(c3cc(C)ccc31)CN(C)CC2 [Compound 22, N-ethyl-2-(1,2,3,4-tetrahydro-2,8-dimethylpyrido[4,3-b]indol-5-yl)acetamide]	51%
Cc1ccc2c(c1)c1c(n2CC(=O)NC(C)C)CCN(C)C1 [Compound 23, 2-(1,2,3,4-tetrahydro-2,8-dimethylpyrido[4,3-b]indol-5-yl)-N-isopropylacetamide]	1%
Cc1ccc2c(c1)c1c(n2CC(=O)NCc2ccccc2)CCN(C)C1 [Compound 25, N-benzyl-2-(1,2,3,4-tetrahydro-2,8-dimethylpyrido[4,3-b]indol-5-yl)acetamide]	18%
CN1CCc2c(c3cc(Cl)ccc3n2CC(=O)NC2CCCC2)C1 [Compound 27, 2-(8-chloro-1,2,3,4-tetrahydro-2-methylpyrido[4,3-b]indol-5-yl)-N-cyclopentylacetamide]	8%
Cc1ccc2c(c1)c1c(n2CCC(=O)NCC2CCCCC2)CCN(C)C1 [Compound 30, N-(cyclohexylmethyl)-3-(1,2,3,4-tetrahydro-2,8-dimethylpyrido[4,3-b]indol-5-yl)propanamide]	61%
CN1CCc2c(c3cc(Cl)ccc3n2CCC(=O)NC2CCCC2)C1 [Compound 31, 3-(8-chloro-1,2,3,4-tetrahydro-2-methylpyrido[4,3-b]indol-5-yl)-N-cyclopentylpropanamide]	33%
CN1CCc2c(c3cc(Cl)ccc3n2CC(N)=O)C1 [Compound 45, 2-(8-chloro-1,2,3,4-tetrahydro-2-methylpyrido[4,3-b]indol-5-yl)acetamide]	24%
Cc1ccc2c(c1)c1c(n2CCC(=O)Nc2ccc(F)cc2)CCN(C)C1 [Compound 47, N-(4-fluorophenyl)-3-(1,2,3,4-tetrahydro-2,8-dimethylpyrido[4,3-b]indol-5-yl)propanamide]	47%
CN1CCc2c(c3cc(Cl)ccc3n2CC(=O)N(C)C)C1 [Compound 48, 2-(8-chloro-1,2,3,4-tetrahydro-2-methylpyrido[4,3-b]indol-5-yl)-N,N-dimethylacetamide]	18%
CN1CCc2c(c3cc(Cl)ccc3n2CCC(=O)N(C)C)C1 [Compound 49, 3-(8-chloro-1,2,3,4-tetrahydro-2-methylpyrido[4,3-b]indol-5-yl)-N,N-dimethylpropanamide]	58%
Cc1ccc2c(c1)c1c(n2CCNC(=O)c2ccncc2)CCN(C)C1 [Compound 50, N-(2-(1,2,3,4-tetrahydro-2,8-dimethylpyrido[4,3-b]indol-5-yl)ethyl)isonicotinamide]	24%
Cc1ccc2c(c1)c1c(n2CC(=O)Nc2ccc(F)cc2)CCN(C)C1 [Compound 51, N-(4-fluorophenyl)-2-(1,2,3,4-tetrahydro-2,8-dimethylpyrido[4,3-b]indol-5-yl)acetamide]	12%
CCCCOC(=O)Cn1c2c(c3cc(Cl)ccc31)CN(C)CC2 [Compound 52, butyl 2-(8-chloro-1,2,3,4-tetrahydro-2-methylpyrido[4,3-b]indol-5-yl)acetate]	14%
Cc1ccc2c(c1)c1c(n2CCC(=O)NCc2ccccc2)CCN(C)C1 [Compound 59, N-benzyl-3-(1,2,3,4-tetrahydro-2,8-dimethylpyrido[4,3-b]indol-5-yl)propanamide]	64%
CN1CCc2c(c3cc(Cl)ccc3n2CC(=O)NC2CCCCC2)C1 [Compound 60, 2-(8-chloro-1,2,3,4-tetrahydro-2-methylpyrido[4,3-b]indol-5-yl)-N-cyclohexylacetamide]	6%
Cc1ccc2c(c1)c1c(n2CCNC(=O)C(C)C)CCN(C)C1 [Compound 61, N-(2-(1,2,3,4-tetrahydro-2,8-dimethylpyrido[4,3-b]indol-5-yl)ethyl)isobutyramide]	40%
Cc1ccc2c(c1)c1c(n2CCNC(=O)C2CCCCC2)CCN(C)C1 [Compound 62, N-(2-(1,2,3,4-tetrahydro-2,8-dimethylpyrido[4,3-b]indol-5-yl)ethyl)cyclohexanecarboxamide]	42%
Cc1ccc2c(c1)c1c(n2CCNC(=O)c2ccc(F)cc2Cl)CCN(C)C1 [Compound 63, 2-chloro-4-fluoro-N-(2-(1,2,3,4-tetrahydro-2,8-dimethylpyrido[4,3-b]indol-5-yl)ethyl)benzamide]	41%
Cc1ccc2c(c1)c1c(n2CC(N)=O)CCN(C)C1 [Compound 64, 2-(1,2,3,4-tetrahydro-2,8-dimethylpyrido[4,3-b]indol-5-yl)acetamide]	16%
Cc1ccc2c(c1)c1c(n2CCNC(=O)C2CCNCC2)CCN(C)C1 [Compound 65, N-(2-(1,2,3,4-tetrahydro-2,8-dimethylpyrido[4,3-b]indol-5-yl)ethyl)piperidine-4-carboxamide]	23%

biological target: T1, human recombinant serotonin (5-Hydroxytryptamine) 5-HT2A receptor (Homo sapiens, UniProt P28223); assay: Serotonin 5-HT2A radioligand binding ([3H]Ketanserin); conditions: compound at 1 μM; CHO-K1 cells; read-out: Serotonin (1 μM) 5-HT2A, percent inhibition of specific binding
T1 construct: expressed in transfected cells; host or cells: CHO-K1 cells
Method: To evaluate in radioligand binding assays the activity of compounds of the invention, human recombinant serotonin (5-Hydroxytryptamine) 5-HT2A receptor expressed in Chinese hamster ovary (CHO-K1) cells (Bonhaus, D. W. et al. Br. J. Pharmacol. 115:622, 1995; Saucier, C. and Albert, P. R., J. Neurochem. 68:1998, 1997) in a 50 mM Tris-HCl buffer, pH 7.4, was used. Compounds of the invention were incubated with 0.5 nM [^3H]Ketanserin for 60 minutes at 25° C. Non-specific binding was estimated in the presence of 1 μM Mianserin. Receptor proteins were filtered and washed, the filters were then counted to determine [^3H] Ketanserin specifically bound. Compounds were screened at 1 μM or lower, using 1% DMSO as vehicle. Biochemical assay results are presented as the percent inhibition of specific binding in Table 7.

T1 sequence (P28223 whole entry): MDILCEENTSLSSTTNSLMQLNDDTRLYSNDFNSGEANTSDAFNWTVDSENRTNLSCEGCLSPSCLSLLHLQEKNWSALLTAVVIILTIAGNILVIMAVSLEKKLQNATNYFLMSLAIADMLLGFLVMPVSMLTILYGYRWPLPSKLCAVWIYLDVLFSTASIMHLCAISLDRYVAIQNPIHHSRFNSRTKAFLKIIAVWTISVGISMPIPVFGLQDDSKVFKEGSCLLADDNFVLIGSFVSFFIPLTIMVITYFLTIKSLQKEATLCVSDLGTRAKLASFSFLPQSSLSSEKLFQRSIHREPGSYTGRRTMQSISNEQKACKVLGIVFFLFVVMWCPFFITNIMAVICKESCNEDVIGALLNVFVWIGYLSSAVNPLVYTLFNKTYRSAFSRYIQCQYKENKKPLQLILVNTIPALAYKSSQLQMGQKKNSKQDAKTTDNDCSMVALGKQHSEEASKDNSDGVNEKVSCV

Compound	inhibition at 1 µM
CCOC(=O)Cn1c2c(c3cc(C)ccc31)CN(C)CC2 [CD57, ethyl 2-(1,2,3,4-tetrahydro-2,8-dimethylpyrido[4,3-b]indol-5-yl)acetate]	92%
CN1CCc2c(c3cc(Cl)ccc3n2CCCO)C1 [CD87, 3-(8-chloro-2-methyl-3,4-dihydro-1H-pyrido[4,3-b]indol-5(2H)-yl)propan-1-ol]	66%
CN1CCc2c(c3cc(Cl)ccc3n2CCO)C1 [CD89, 2-(8-chloro-2-methyl-3,4-dihydro-1H-pyrido[4,3-b]indol-5(2H)-yl)ethanol]	70%
Cc1ccc2c(c1)c1c(n2CCO)CCN(C)C1 [CD90, 2-(2,8-dimethyl-3,4-dihydro-1H-pyrido[4,3-b]indol-5(2H)-yl)ethanol]	58%
Cc1ccc2c(c1)c1c(n2CCBr)CCN(C)C1 [CD91, 5-(2-bromoethyl)-2,8-dimethyl-2,3,4,5-tetrahydro-1H-pyrido[4,3-b]indole]	96%

same assay, conditions: read-out: Serotonin (1 μM) 5-HT2A, percent inhibition of specific binding

Compound	inhibition at 1 µM
CN1CCc2c(c3cc(Cl)ccc3n2CCBr)C1 [CD88, 5-(2-bromoethyl)-8-chloro-2-methyl-2,3,4,5-tetrahydro-1H-pyrido[4,3-b]indole]	98%
